The target of the assay is T1, monoacylglycerol lipase (MAGL) (Homo sapiens, UniProt Q99685).
T1 construct: gene MGLL
T1 sequence (Q99685 1-303): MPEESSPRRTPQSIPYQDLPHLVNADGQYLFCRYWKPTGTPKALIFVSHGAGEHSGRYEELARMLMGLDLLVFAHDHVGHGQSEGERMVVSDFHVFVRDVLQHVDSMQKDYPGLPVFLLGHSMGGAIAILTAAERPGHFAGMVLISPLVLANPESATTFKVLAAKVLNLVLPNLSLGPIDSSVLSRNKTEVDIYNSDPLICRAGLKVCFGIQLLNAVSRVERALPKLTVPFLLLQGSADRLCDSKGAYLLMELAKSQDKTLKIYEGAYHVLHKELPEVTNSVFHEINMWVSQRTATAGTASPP
Nature of the assay: Cayman Monoacylglycerol Lipase Inhibitor Screening Assay Kit, absorbance at […] nm, […] min preincubation; maximum inhibition about […]. The format is biochemical.

Each structure is given as a SMILES string.

The values that follow come from publication PMC10648159, “Novel MAGL Inhibitors Alleviate LPS-Induced Acute Kidney Injury by Inhibiting NLRP3 Inflammatory Vesicles, Modulating Intestinal Flora, Repairing the Intestinal Barrier, and Interfering with Serum Metabolism” (Molecules, 2023).

The term IC50 denotes the concentration needed to halve the response being measured. The low end stands for inhibition by little substance, the high end for a need for much substance.

Consider `CN1c2ccccc2CC1C(=O)N1CCC(C(=O)Nc2cccc(Cl)c2)CC1` (stereo not shown) [M-18C, MAGLZ-18(c)], for which the half-inhibitory concentration (IC50) was determined as 663 nM.
